Among the test systems are CAKI-1 renal; CCRF-CEM leukemia; DLD-1 colon; DMS 273 small cell lung; M19-MEL melanoma; RXF 393 renal; SK-MEL-28 melanoma; SNB-78 CNS; M14 melanoma; 786-0 renal; SR leukemia.
Common to all, as to test: growth of human tumour cells (NCI), 48 h

The values below come from PubChem BioAssay (NCI).

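How tested: cells in 96-well plates exposed to compound for 48 hours at five concentrations. TGI is the concentration that stops growth completely.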

As to `O=NN(CCF)C(=O)NC1CCSCC1`, the TGI in the assay with CAKI-1 renal, in the assay with CCRF-CEM leukemia, with DLD-1 colon, in the assay with DMS 273 small cell lung, with M19-MEL melanoma and with RXF 393 renal was above 100 µM each time. Besides, the TGI in the assay with SK-MEL-28 melanoma and in the assay on SNB-78 CNS was above 100 µM throughout.

As to `CN1CCN(P2(=S)Oc3ccc4ccccc4c3-c3c(ccc4ccccc34)O2)CC1`, the TGI is above 67.5 µM with CAKI-1 renal; above 100 µM in the assay with CCRF-CEM leukemia; above 100 µM in the assay with DLD-1 colon; 73 µM in the assay with DMS 273 small cell lung; above 100 µM in the assay on M19-MEL melanoma; above 94.7 µM in the assay with RXF 393 renal. For the same compound, the TGI in the assay on SK-MEL-28 melanoma and in the assay with SNB-78 CNS was above 100 µM in each case.

For the compound `O=C1CCCC/C1=C\c1ccc(Cl)c(Cl)c1`, the TGI is 37.6 µM in the assay with CAKI-1 renal; 58.7 µM with CCRF-CEM leukemia; 61.6 µM in the assay with DLD-1 colon; 38.5 µM with DMS 273 small cell lung; 42.2 µM in the assay on M14 melanoma; 40.3 µM with M19-MEL melanoma. Moreover, the TGI in the assay with SK-MEL-28 melanoma is 37.7 µM; in the assay on SNB-78 CNS, 52.7 µM.

With `CCCCCCCCCCCC[N+](CCCCCCCCCCCC)=C1SCCS1`, the TGI with 786-0 renal was 11.8 µM; in the assay with CAKI-1 renal, 26.1 µM; in the assay with DLD-1 colon, 21.2 µM; with DMS 273 small cell lung it was 11.4 µM; in the assay with M14 melanoma it was 22.3 µM; in the assay with M19-MEL melanoma, 8.43 µM. The TGI was determined as 14.8 µM in the assay on RXF 393 renal, 22.9 µM in the assay on SK-MEL-28 melanoma, 14.6 µM with SNB-78 CNS and 15.2 µM in the assay on SR leukemia.

`CCOC(=O)c1c[nH]c2ccc3c(c2c1=O)S(=O)(=O)CC3` (tested in a mixture with another compound): the TGI with CAKI-1 renal, in the assay on CCRF-CEM leukemia, with DLD-1 colon, with DMS 273 small cell lung, in the assay on M19-MEL melanoma and with RXF 393 renal was above 100 µM in each case. The TGI with SK-MEL-28 melanoma and in the assay with SNB-78 CNS was above 100 µM in each case.
